Laboratory results reported in article PMC6271531 (2014).

What was measured:
[1] = tested on: d(CGCGAATTCGCG)2, Dickerson DNA duplex (ds) (DNA, duplex) CGCGAATTCGCG; experiment: ESI-MS, negative mode; details: NH4+ (100 mM ammonium acetate); pH 6.7; equimolar; reference ligand, value not shown
[2] = tested on: single stranded oligonucleotide d(CGCGAATTCGCG) (ss) (DNA, single strand) CGCGAATTCGCG; experiment: ESI-IM-MS, negative mode; details: NH4+ (100 mM ammonium acetate); 20% methanol, pH 6.7; 1:10 molar ratio (170 µM compound); very low abundance, none at 1:1

Structure (SMILES)	binding [1]	binding [2]
N=C(N)c1ccc(N=NNc2ccc(C(=N)N)cc2)cc1	yes	–
O=C(CCN(CCC(=O)NCCNC(=S)Nc1ccccc1)CCC(=O)NCCNC(=S)Nc1ccccc1)NCCNC(=S)Nc1ccccc1	–	weak
NCCNC(=O)CCN(CCC(=O)NCCN)CCC(=O)NCCN	–	weak
